Laboratory results from US4772589A, “Etoposide solution in NMP” (Bristol-Myers, priority 1986, dated 1988).
≈ marks a conversion by molar mass, not a printed value.

Columns and labels:
[1] = water, ethanol, ether, chloroform, benzene, ethyl acetate, and carbon disulfide; cited from earlier work
[2] = Etoposide solubility in various solvents; assay type: physicochemical
Source text: The high etoposide concentration achievable renders the solution useful as gelatin capsule fill. Table III compares the solubility of etoposide in various solvents.

[3] = Crystallization on dilution with water or parenteral vehicle
[4] = oral gelatin capsule vs IV; cited from earlier work

| Compound | Miscibility [1] | solubility ([2]; 1-methyl-2-pyrrolidinone, organic solvent or mixture, solvent: 1-Methyl-2-pyrrolidinone) [mg/mL] | solubility ([2]; benzyl alcohol, organic solvent or mixture, solvent: Benzyl Alcohol) [mg/mL] | solubility ([2]; dimethylisosorbide, organic solvent or mixture, solvent: Dimethylisosorbide) [mg/mL] | solubility ([2]; ethanol, organic solvent or mixture, solvent: Ethanol) [mg/mL] | solubility ([2]; propylene glycol, organic solvent or mixture, solvent: Propylene Glycol) [mg/mL] | solubility ([2]; water, solvent: Water) [mg/mL] | Crystallization on dilution with water ([3]; solution in 1-ethyl-2-pyrrolidinone, diluted with water to 0.5-5 mg/ml) | Crystallization on dilution with water ([3]; solution in 2-pyrrolidinone, diluted with water to 0.5-5 mg/ml) | Crystallization on dilution with water ([3]; solution in dimethylacetamide, diluted with water to 0.5-5 mg/ml) | Crystallization on dilution with water ([3]; solution in dimethylformamide, diluted with water to 0.5-5 mg/ml) | Crystallization on dilution with water ([3]; solution in dimethylisosorbide, diluted with water to 0.5-5 mg/ml) | Crystallization on dilution with water ([3]; solution in ethanol, diluted with water to 0.5-5 mg/ml) | Crystallization on dilution with water ([3]; solution in polyethylene glycol-300, diluted with water to 0.5-5 mg/ml) | Crystallization on dilution with water ([3]; solution in propylene glycol, diluted with water to 0.5-5 mg/ml) | Gelatin capsule dose relative to IV dose for equivalent blood level [4] |
| --- | --- | --- | --- | --- | --- | --- | --- | --- | --- | --- | --- | --- | --- | --- | --- | --- |
| CN1CCCC1=O [1-Methyl-2-pyrrolidinone, 1-methyl-2-pyrrolidinone] | miscible | – | – | – | – | – | – | – | – | – | – | – | – | – | – | – |
| COc1cc([C@@H]2c3cc4c(cc3[C@@H](O[C@@H]3O[C@@H]5CO[C@@H](C)O[C@H]5[C@H](O)[C@H]3O)[C@H]3COC(=O)[C@H]23)OCO4)cc(OC)c1O [etoposide, 4'-demethylepipodophyllotoxin-9-(4,6-O(R)-ethylidine-β-D-glucopyranoside)] | – | > 500 | 104 (≈ 177 mM) | 320 (≈ 544 mM) | < 1 | 11 (≈ 18.7 mM) | 0.1 (≈ 0.17 mM) | rapid deposit of etoposide crystals | rapid deposit of etoposide crystals | rapid deposit of etoposide crystals | rapid deposit of etoposide crystals | rapid deposit of etoposide crystals | rapid deposit of etoposide crystals | rapid deposit of etoposide crystals | rapid deposit of etoposide crystals | twice as high |
